Each compound was assayed against T1, Glucocorticoid receptor (Homo sapiens, UniProt P04150) (assay: GR Binding Assay).
T1 sequence (P04150 whole entry): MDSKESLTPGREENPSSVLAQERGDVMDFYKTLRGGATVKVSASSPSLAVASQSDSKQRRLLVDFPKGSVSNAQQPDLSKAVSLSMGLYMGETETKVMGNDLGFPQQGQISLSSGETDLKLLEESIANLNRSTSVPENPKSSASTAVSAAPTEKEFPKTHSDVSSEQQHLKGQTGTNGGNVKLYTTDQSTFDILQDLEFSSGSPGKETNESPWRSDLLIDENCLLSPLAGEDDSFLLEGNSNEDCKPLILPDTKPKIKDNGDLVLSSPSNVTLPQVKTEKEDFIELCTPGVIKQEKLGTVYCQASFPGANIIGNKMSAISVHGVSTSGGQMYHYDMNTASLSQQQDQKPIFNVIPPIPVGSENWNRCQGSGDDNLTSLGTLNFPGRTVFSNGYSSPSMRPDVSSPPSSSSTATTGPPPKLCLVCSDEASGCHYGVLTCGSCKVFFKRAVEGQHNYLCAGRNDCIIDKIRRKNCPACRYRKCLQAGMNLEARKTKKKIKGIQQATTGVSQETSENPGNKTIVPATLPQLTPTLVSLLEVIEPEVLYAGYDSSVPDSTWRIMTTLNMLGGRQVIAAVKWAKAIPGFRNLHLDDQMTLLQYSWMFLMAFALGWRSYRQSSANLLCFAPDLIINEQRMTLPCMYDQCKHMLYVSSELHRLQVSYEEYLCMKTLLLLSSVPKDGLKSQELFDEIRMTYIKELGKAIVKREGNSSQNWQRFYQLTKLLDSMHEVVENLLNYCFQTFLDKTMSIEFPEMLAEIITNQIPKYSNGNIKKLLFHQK
Protocol: Binding of test compounds to the glucocorticoid receptor (GR) is determined using a fluorescence polarisation (FP) assay utilising a recombinant ligand binding domain (LBD) of GR. The test compounds are assessed by their ability to displace a fluorescently tagged ligand and detection of the resulting decrease in fluorescence polarisation.
Work on `CCCn1cc(S(=O)(=O)N2CCC(Cc3ccccn3)(c3cc4cnn(-c5ccc(F)cc5)c4cc3C)C2)cn1` (stereo not drawn) [US11787780, Example 152] yielded an IC50 of 13 nM. For `Cc1cc2c(cnn2-c2ccc(=O)n(C)c2)cc1C1(Cc2ccccc2)CCN(S(=O)(=O)c2cnn(C(C)C)n2)C1` (stereo not drawn) [US11787780, Example 320], the IC50 was 12 nM. `Cc1cc2c(cnn2-c2ccc(F)cc2)cc1C1(Cc2ccccc2)CC(O)N(Cc2ccccc2)C1=O` (stereo not drawn) [US11787780, Example 336] showed an IC50 of 180 nM.
